How the values were obtained:
[1] = biological target: 11-beta-hydroxysteroid dehydrogenase 1 (Mus musculus) (UniProt P50172); conditions: at 1 µM
Description: Inhibition of full-length mouse 11beta-HSD1 expressed in HEK293 microsomal fraction at 1 uM using [3H]cortisone as substrate after 1 hr by scintillation proximity assay relative to control

[2] = biological target: T1, 11-beta-hydroxysteroid dehydrogenase 1 (Mus musculus, UniProt P50172); test: Inhibition of full-length mouse 11beta-HSD1 expressed in HEK293 microsomal fraction […] after 1 hr by scintillation proximity assay
[3] = biological target: T2, 11-beta-hydroxysteroid dehydrogenase type 2 (Mus musculus, UniProt P51661); test: Inhibition of full-length mouse 11beta-HSD2 expressed in HEK293 microsomal fraction […] after 1 hr by scintillation proximity assay
T2 sequence (P51661 whole entry): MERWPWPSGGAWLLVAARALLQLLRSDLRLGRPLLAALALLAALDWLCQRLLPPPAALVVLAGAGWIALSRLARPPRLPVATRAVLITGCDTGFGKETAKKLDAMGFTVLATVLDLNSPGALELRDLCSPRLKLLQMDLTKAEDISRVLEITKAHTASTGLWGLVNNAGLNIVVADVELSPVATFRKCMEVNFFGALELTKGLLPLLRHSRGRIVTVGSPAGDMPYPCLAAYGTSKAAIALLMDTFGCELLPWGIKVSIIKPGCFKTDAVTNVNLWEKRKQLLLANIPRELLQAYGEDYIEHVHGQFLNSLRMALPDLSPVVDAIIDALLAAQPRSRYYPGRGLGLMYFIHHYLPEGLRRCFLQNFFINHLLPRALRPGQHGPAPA

[4] = biological target: T3, 11-beta-hydroxysteroid dehydrogenase type 2 (Homo sapiens, UniProt P80365); test: Inhibition of full-length human 11beta-HSD2 expressed in HEK293 microsomal fraction using [3H]cortisone as substrate after 2 hr by scintillation proximity assay; assay type: cell-based
T3 sequence (P80365 whole entry): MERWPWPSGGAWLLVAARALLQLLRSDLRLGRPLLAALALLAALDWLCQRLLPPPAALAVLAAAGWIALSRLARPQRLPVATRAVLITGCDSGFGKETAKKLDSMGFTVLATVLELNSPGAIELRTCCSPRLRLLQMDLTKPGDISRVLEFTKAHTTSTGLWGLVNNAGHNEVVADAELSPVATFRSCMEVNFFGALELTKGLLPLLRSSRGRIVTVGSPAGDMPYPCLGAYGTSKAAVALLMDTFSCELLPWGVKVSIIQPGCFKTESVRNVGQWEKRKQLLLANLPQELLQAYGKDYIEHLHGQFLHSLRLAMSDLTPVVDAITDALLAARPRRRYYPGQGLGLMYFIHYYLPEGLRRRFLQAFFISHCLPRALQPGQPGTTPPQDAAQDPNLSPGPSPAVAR

[5] = biological target: T4, 11-beta-hydroxysteroid dehydrogenase 1 (Homo sapiens, UniProt P28845); conditions: HEK293, at 1 µM
Target sequence in this assay (P28845 whole entry, looked up): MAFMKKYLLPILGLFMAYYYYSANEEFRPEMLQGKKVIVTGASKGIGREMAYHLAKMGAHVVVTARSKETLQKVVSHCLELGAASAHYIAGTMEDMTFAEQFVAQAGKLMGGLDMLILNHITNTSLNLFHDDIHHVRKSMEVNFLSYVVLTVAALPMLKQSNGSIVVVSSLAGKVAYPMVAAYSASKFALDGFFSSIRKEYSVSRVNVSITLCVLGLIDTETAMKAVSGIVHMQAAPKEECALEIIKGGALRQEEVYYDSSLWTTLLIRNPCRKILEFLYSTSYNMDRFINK
Description: Inhibition of full-length human 11beta-HSD1 expressed in HEK293 microsomal fraction at 1 uM using [3H]cortisone as substrate after 2 hr by scintillation proximity assay relative to control

[6] = biological target: T4, 11-beta-hydroxysteroid dehydrogenase 1; test: Inhibition of full-length human 11beta-HSD1 expressed in HEK293 microsomal fraction using [3H]cortisone as substrate after 2 hr by scintillation proximity assay
Target sequence in this assay (P28845 whole entry): as the sequence (P28845 whole entry, looked up) above

[7] = biological target: T1, 11-beta-hydroxysteroid dehydrogenase 1; test: Inhibition of mouse N-terminal His-tagged 11beta-HSD1 expressed in Escherichia coli using cortisol as substrate by fluorescence-based assay
[8] = biological target: T4, 11-beta-hydroxysteroid dehydrogenase 1; test: Inhibition of human N-terminal His-tagged 11beta-HSD1 expressed in Escherichia coli using cortisol as substrate by fluorescence-based assay
Target sequence in this assay (P28845 whole entry): as the sequence (P28845 whole entry, looked up) above

Sequence of 11-beta-hydroxysteroid dehydrogenase 1 (Mus musculus) (P50172 whole entry, looked up): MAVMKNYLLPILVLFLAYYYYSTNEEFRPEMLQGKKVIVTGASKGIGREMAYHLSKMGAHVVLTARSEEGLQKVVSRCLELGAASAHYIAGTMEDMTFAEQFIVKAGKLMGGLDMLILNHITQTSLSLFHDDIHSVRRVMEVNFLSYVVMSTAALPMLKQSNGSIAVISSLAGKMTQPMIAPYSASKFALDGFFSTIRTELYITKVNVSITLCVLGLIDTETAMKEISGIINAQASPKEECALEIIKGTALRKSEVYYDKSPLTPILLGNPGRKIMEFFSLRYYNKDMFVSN
T1 sequence (P50172 whole entry): as the sequence (P50172 whole entry, looked up) above

Row | inhibition [1] | SMILES | also measured
1 | 8.02% | CC(=O)O[C@H]1CC[C@]2(C)[C@H]3C[C@@H](OC(C)=O)[C@@H]4[C@@H](Cl)CC[C@@]4(C)[C@]3(C)CC[C@H]2C1(C)C | 
2 | 32.2% | CC1(C)[C@@H](O)CC[C@]2(C)[C@H]3C[C@@H](O)[C@@H]4[C@@H](C(=O)CO)CC[C@@]4(C)[C@]3(C)CC[C@@H]12 | 
3 | 47% | CC1(C)[C@@H](O)CC[C@]2(C)[C@H]3C[C@@H](O)[C@@H]4[C@H](O)CC[C@@]4(C)[C@]3(C)CC[C@@H]12 | 
4 | 57.9% | CC1(C)[C@@H](O)CC[C@]2(C)[C@H]3C[C@@H](O)[C@@H]4[C@@H](CO)CC[C@@]4(C)[C@]3(C)CC[C@@H]12 | IC50 [2]: 476 nM; IC50 [3]: > 10000 nM
5 | 16.9% | CC1(C)[C@@H](O)CC[C@]2(C)[C@H]3C[C@@H](O)[C@]45O[C@H]4CC[C@@]5(C)[C@]3(C)CC[C@@H]12 | 
6 | 15.4% | CC(=O)O[C@H]1CC[C@]2(C)[C@H]3C[C@@H](OC(C)=O)C4=CCC[C@@]4(C)[C@]3(C)CC[C@H]2C1(C)C | 
7 | 11.5% | CCC(=O)CC[C@]1(C)C(=O)[C@H](O)C[C@@H]2[C@@]3(C)CC[C@H](OC(C)=O)C(C)(C)[C@@H]3CC[C@]21C | IC50 [4]: 6260 nM; inhibition [5]: 54.3%; IC50 [6]: 729 nM
8 | 79% | CC(=O)O[C@H]1CC[C@]2(C)[C@H]3C[C@@H](O)[C@@H]4[C@@H](O)CC[C@@]4(C)[C@]3(C)CC[C@H]2C1(C)C | IC50 [4]: > 10000 nM; inhibition [5]: 51.6%; IC50 [2]: 213 nM; IC50 [3]: > 10000 nM; IC50 [6]: 994 nM
9 | 40.9% | CC(=O)O[C@H]1CC[C@]2(C)[C@H]3C[C@@H](OC(C)=O)[C@@H]4[C@@H](C(C)=O)CC[C@@]4(C)[C@]3(C)CC[C@H]2C1(C)C | inhibition [5]: 69.4%; IC50 [6]: 244 nM
10 | 15.1% | CC1(C)[C@@H](O)CC[C@]2(C)[C@H]3C[C@@H](O)[C@@H]4[C@@H](C(=O)O)CC[C@@]4(C)[C@]3(C)CC[C@@H]12 | 
11 | 11.9% | CC(=O)O[C@H]1CC[C@]2(C)[C@H]3C[C@@H](OC(C)=O)[C@@H]4[C@@H](C(=O)CF)CC[C@@]4(C)[C@]3(C)CC[C@H]2C1(C)C | 
12 | 13.3% | CC(=O)O[C@H]1CC[C@]2(C)[C@H]3C[C@@H](OC(C)=O)[C@@H]4[C@@H](O)CC[C@@]4(C)[C@]3(C)CC[C@H]2C1(C)C | 
13 | 11.5% | COCO[C@H]1CC[C@]2(C)[C@H]3C[C@@H](OCOC)[C@@H]4[C@@H](C(C)=O)CC[C@@]4(C)[C@]3(C)CC[C@H]2C1(C)C | 
14 | 28.2% | CC1(C)[C@@H](O)CC[C@]2(C)[C@H]3C[C@@H](O)[C@@H]4[C@@H](O)CC[C@@]4(C)[C@]3(C)CC[C@@H]12 | 
15 | 20.1% | CC(=O)O[C@H]1CC[C@]2(C)[C@H]3C[C@@H](OC(C)=O)[C@@H]4[C@@H](C(=O)CO)CC[C@@]4(C)[C@]3(C)CC[C@H]2C1(C)C | inhibition [5]: 62.6%; IC50 [6]: 488 nM
16 | 10.8% | CC(=O)O[C@H]1CC[C@]2(C)[C@H]3C[C@@H](OC(C)=O)[C@@H]4[C@@H](C(=O)CCCC(C)C)CC[C@@]4(C)[C@]3(C)CC[C@H]2C1(C)C | inhibition [5]: 81.1%; IC50 [6]: 101 nM
17 | 40.9% | CC1(C)C=CC[C@]2(C)[C@H]3C[C@@H](O)[C@@H]4[C@@H](O)CC[C@@]4(C)[C@]3(C)CC[C@@H]12 | 

More lines, now with the values behind:

Row | SMILES | inhibition [1] | also measured
18 | CC1(C)[C@@H](O)CC[C@]2(C)[C@H]3C[C@@H](O)C4=CCC[C@@]4(C)[C@]3(C)CC[C@@H]12 | 33.2% | 
19 | CC(=O)[C@H]1CC[C@]2(C)[C@@H]1[C@H](O)C[C@@H]1[C@@]3(C)CCC(=O)OC(C)(C)[C@@H]3CC[C@]12C | 27.6% | 
20 | CC(=O)OCO[C@@H]1C[C@@H]2[C@@]3(C)CC[C@H](O)C(C)(C)[C@@H]3CC[C@@]2(C)[C@]2(C)CCC(=O)[C@@H]12 | 20.9% | 
21 | CC(C)CCCC(=O)[C@H]1CC[C@]2(C)[C@@H]1[C@H](O)C[C@@H]1[C@@]3(C)CC[C@H](O)C(C)(C)[C@@H]3CC[C@]12C | 17.3% | 
22 | CC1(C)[C@@H](O)CC[C@]2(C)[C@H]3CC(=O)C4=CCC[C@@]4(C)[C@]3(C)CC[C@@H]12 | 47.4% | IC50 [4]: 9580 nM; inhibition [5]: 50.2%; IC50 [6]: 1050 nM
23 | CC(=O)O[C@H]1CC[C@]2(C)[C@H]3C[C@@H](OC(C)=O)[C@@H]4C(=O)CC[C@@]4(C)[C@]3(C)CC[C@H]2C1(C)C | 12.5% | 
24 | CC1=CC[C@@]2(CC1O)[C@@H](C(=O)O)CC[C@H]2C(C)C (stereo partly drawn) |  | IC50 [7]: 460 nM; IC50 [8]: 13 nM
25 | CC1(C)[C@@H](O)CC[C@]2(C)[C@H]3C[C@@H](O)[C@@H]4CCC[C@@]4(C)[C@]3(C)CC[C@@H]12 | 58.4% | IC50 [2]: 592 nM; IC50 [3]: > 100000 nM
26 | CC(C)(O)[C@@H]1CC[C@]2(C)[C@H](C[C@@H](O)[C@@H]3[C@@H](O)CC[C@]32C)[C@@]1(C)CCCO | 16.1% | 
27 | CC(=O)[C@H]1CC[C@]2(C)[C@@H]1[C@H](O)C[C@@H]1[C@@]3(C)CC[C@H](O)C(C)(C)[C@@H]3CC[C@]12C | 27.1% | 
28 | CC(C)(O)[C@@H]1CC[C@]2(C)[C@H](C[C@@H](O)[C@@H]3[C@@H](O)CC[C@]32C)[C@@]1(C)CCC(=O)O | 20.8% | 
29 | CC(=O)[C@]1(O)CC[C@]2(C)[C@@H]1[C@H](O)C[C@@H]1[C@@]3(C)CC[C@H](O)C(C)(C)[C@@H]3CC[C@]12C | 65.7% | IC50 [2]: 601 nM; IC50 [3]: > 10000 nM
30 | CC(=O)O[C@H]1CC[C@]2(C)[C@H]3C[C@@H](O)[C@@H]4[C@@H](C(C)=O)CC[C@@]4(C)[C@]3(C)CC[C@H]2C1(C)C | 60.9% | IC50 [2]: 454 nM; IC50 [3]: > 10000 nM
31 | CCC(=O)CC[C@]1(C)C(=O)[C@H](OC(C)=O)C[C@@H]2[C@@]3(C)CC[C@H](OC(C)=O)C(C)(C)[C@@H]3CC[C@]21C | 13.3% | 
32 | CC1(C)[C@@H](O)CC[C@]2(C)[C@H]3C[C@@H](O)[C@@H]4[C@@H](Cl)CC[C@@]4(C)[C@]3(C)CC[C@@H]12 | 35.8% | 
33 | CO[C@H]1CC(=O)[C@]2(C)[C@@H]1[C@H](OC(C)=O)C[C@@H]1[C@@]3(C)CC[C@H](O)C(C)(C)[C@@H]3CC[C@]12C |  | IC50 [2]: 400 nM
34 | CC1(C)[C@@H](O)CC[C@]2(C)[C@H]3C[C@H]4OC[C@H]5CC[C@](C)([C@@H]54)[C@]3(C)CC[C@@H]12 | 44.9% | 
35 | CC1(C)CCC[C@]2(C)[C@H]3C[C@@H](O)[C@@H]4[C@@H](O)CC[C@@]4(C)[C@]3(C)CC[C@@H]12 | 6.25% | 
36 | COC(=O)[C@H]1CC[C@]2(C)[C@@H]1[C@H](O)C[C@@H]1[C@@]3(C)CC[C@H](O)C(C)(C)[C@@H]3CC[C@]12C | 7.69% | 
37 | CC1=C2CC[C@]3(C)[C@@H]2[C@@H](C[C@@H]2[C@@]4(C)CC[C@H](O)C(C)(C)[C@@H]4CC[C@]23C)OCO1 | 15.5% | 
